These results are taken from a melting point compilation (Tetko et al.; mined from patent text by program, amines drawn as free bases though some values may be those of a salt).

A word on the melting point: it is the temperature, or range, at which the solid turns liquid.

Residues, ends and D or L forms follow the SMILES beside them. *: point of attachment. Boc = CC(C)(C)OC(=O)*; OBn = c1ccc(CO*)cc1

For `O=c1c2ccccc2sc(-c2ccncc2)[n+]1[O-]`, the melting point lay within 248 to 252 °C.
Next, `CNC(=S)n1nc(C=Cc2ccc(Cl)cc2)nc1N`: 209 to 210 °C; `CCc1cc(C)cc(CC)c1C1C(=O)C2CC(COc3nc(C)c(C)s3)CC2C1=O` (stereo unspecified): 73 to 74 °C; `N#Cc1cccc(NC(C(=O)O)c2ccccc2)c1` (stereo unspecified): 159 to 162 °C.
The figure for `COC(=O)c1cccc(CNC(=O)OC(C)(C)C)c1O` is 95 to 96 °C; for `CCOC(=O)c1cnn(-c2ccc(C)cc2)n1` it is 61 to 62 °C.
The figure for `CC1(C2CCCC2)Cc2cc(NCCO)c(Cl)c(Cl)c2C1=O` (stereo unspecified) is 135 to 136 °C; for `Cc1[nH]c(=O)cc2c1CC(c1ccncc1)CC2` (stereo unspecified) it is above 300 °C; for `Cc1ccc2oc(=O)c(C(=O)Oc3cc(F)ccc3[N+](=O)[O-])cc2c1` it is 224 to 226 °C.
Turning to `CCCc1nn(C)c2c(=O)[nH]c(Cc3ccc(-n4cnnc4)cc3)nc12`, the melting point was 297 to 300 °C.
Next, `CC(C)(C)OC(=O)NC(C)(C)c1ccc(C(=O)CC#N)cc1`: 122 to 123 °C.
Next, `CCc1ccc(N(C(=O)CCl)c2c(F)c(F)cc(F)c2F)cc1`: 72 °C.
The figure for `Cc1cccc2nc3sccn3c(=O)c12` is 148 to 150 °C; for `COC(=O)C[C@H](Cc1ccc(-c2ccccc2)cc1)NC(=O)OC(C)(C)C` it is 86 to 87 °C.
`CCOC(=O)c1cnc2c(c(C)nc3cc(C)nn32)c1Cl` had a melting point of 143 to 145 °C.
Regarding `Cc1c(C(C)(C)C)cc(C(C)C)c(O)c1CO`, the melting point fell in the range of 143 to 146 °C.
In the case of `Cc1cc2c(cc1-c1cccc(C#CC(=O)O)c1)C(C)(C)CCC2(C)C`, the melting point lay in the range of 180 to 181 °C.
The figure for `O=C1c2ccc(-c3cccc(C(F)(F)F)c3)cc2CC1Br` (stereo unspecified) is 96 °C; for `O=C1Cc2cc(F)ccc2N1c1ccc(F)cc1` it is 135 to 140 °C; for `Nc1cc(-c2ccccc2CCN2CCN(c3nccn3-c3ccccc3)CC2)ccn1` it is 140 to 142 °C.
`CCOc1cc2c(Nc3cc(OC)c(Cl)cc3Cl)c(C#N)cnc2cc1OCCCC1CCN(C)CC1` came in with a melting point of 148 to 151 °C.
`COc1ccc(N2C(=O)[C@@H](NC(=O)Cc3ccccc3)[C@H]2C=CC(=O)[C@@H]2CCCO2)cc1` registered a melting point of 159 to 162 °C.
Next, `CCOC(=O)N1CCN(c2ccc(-n3cnn(C(CC)C(O)c4ccc(Cl)cc4)c3=O)cn2)CC1` (stereo unspecified): 196 °C; `O=C(O)CCC(=O)Nc1ccc2oc(-c3ccc(O)cc3)c(O)c(=O)c2c1`: 256 to 257 °C; `O=C(O)CCCCCCCn1c(-c2ccccc2)nc(-c2ccccc2Cl)c1-c1ccccc1Cl`: 198 °C.
Next, `COc1ccc(Oc2cccc(CCN(C)CCN(O)C(N)=O)c2)cc1`: 87 to 88.5 °C; `Cc1cc(C)cc(OC(=O)C(Cl)c2ccccc2)c1` (stereo unspecified): 79 °C; `CC(C)NC1=NS(=O)(=O)c2c(cnn2C)N1`: 242 to 243 °C.
The figure for `C[C@H](NC(=O)OCC1c2ccccc2-c2ccccc21)C(=O)O` is 144 to 146 °C.
For `O=C1C2=NCCCN2c2cc(Cl)ccc21`, the melting point lay in the range of 164 to 167 °C.
The figure for `Fc1ccc(Nc2ncnc3cnc(NCc4ccccn4)nc23)cc1Cl` is 220 to 222 °C; for `Cc1cccc(CC(=O)c2ccnc(-c3ccc(N4CCOCC4)cc3)c2)n1` it is 114 °C.
On to `CCc1nc2c(N)nc3ccccc3c2n1OC`, for which the melting point lay in the range of 216 to 217 °C.
On to `COc1ccc(/C=C/c2cc(Cl)cc(Cl)c2)cc1`, for which the melting point lay within 62 to 64 °C.
Next, `CCC1CN2C(C)=Nc3c(C)nn(C)c3C2=N1` (stereo unspecified): 121 to 123 °C.
The figure for `O=c1c2cc(Br)ccc2[nH]n1-c1ccccc1F` is 200 to 205 °C; for `COc1ccc(CN2CCc3c(cnc4[nH]ncc34)C2)cc1` it is 184 to 186 °C; for `CS(=O)c1ccc(Oc2ccc(Cl)c(Cl)c2)cc1` (stereo unspecified) it is 92 to 93.5 °C.
Next, `N#CC1CN1C(=O)c1ccc(Cl)nn1` (stereo unspecified): 109 to 115 °C; `Clc1ccc(OCc2ccccc2)c(OCc2ccccc2)c1Cl`: 74 to 75.5 °C; `CCC(CC)CC(C)(NC(CO)c1ccccc1)C(=O)O` (stereo unspecified): 149 °C.
For `CSCCC(NC=O)C(N)=O` (racemic), the melting point is 121 to 122 °C.
Next, `O=C1C(=O)c2ccccc2C2=C1SCC1(CCN(C(=O)Cc3ccc(Cl)cc3)CC1)O2`: 120 to 125 °C; `CC(=O)Oc1c(C)c(C)nc2ccccc12`: 93 to 94 °C.
Next, `NCc1ccn(C2=CC3=C(CC2)CCc2[nH]c(=O)c(=O)n(O)c23)c1`: above 250 °C; `CC(C)c1cccc(C(C)C)c1N=C(c1ccccc1)N(CC(=O)c1ccccc1)c1c(C(C)C)cccc1C(C)C`: 142 to 143 °C; `CCC(C)OC(=O)CNC(=O)[C@@H](Cc1ccccc1)CN1CC[C@@](C)(c2cccc(O)c2)[C@@H](C)C1` (stereo partly specified): 94 °C.
Next, `Cc1ccc(C(=O)Nc2ccc(C)c(-c3nc(OC(C)C)nc4c3CNC(=O)N4c3c(F)cccc3F)c2)cc1F`: 254 to 255 °C.
`CCc1sc(-c2cc[nH]n2)c2c1C(=O)CC(C)(C)C2`: the melting point was 152 to 155 °C.
Next, `COc1ccc(C(=O)Nc2cc(NC(=O)c3cccc(N)c3)ccc2C)cc1OC`: 179 to 180 °C; `CN(C)Cc1ncccc1OC1SCC(O)C(O)C1O` (stereo unspecified): 79 °C.
The figure for `CCOC(=O)C(=O)Nc1c([N+](=O)[O-])cc(S(=O)(=O)NC(=O)C(=O)OCC)c2c1CCCC2` is 140 to 142 °C.
`Oc1cccc2c1C(n1ccnc1)=CCC2` gave a melting point of 186 °C.
Next, `O=C(Nc1ccc(F)cc1)OC1CCCNC1` (stereo unspecified): 147 to 148 °C.
Regarding `Nc1cc2cccnc2c(-c2cccc([N+](=O)[O-])c2)n1`, the melting point lay within 221 to 223 °C.
For `O=C(Nc1ccc(F)cc1)c1cccc([N+](=O)[O-])c1`, the melting point lay in the range of 167 to 168 °C.
Regarding `CCCCNC(=O)NS(=O)(=O)c1cccc2c1OC(C)(C)C2`, the melting point was 200 to 203 °C.
Next, `COc1ccc2c(ccc3c4ccc(OC)cc4c(=O)n(-c4ccc(OCCN5CCCCC5)cc4)c23)c1`: 176 °C; `Nc1cc2cccc(F)c2oc1=O`: 173 to 174 °C.
In turn, `COc1ccc(C(c2ccccc2)(c2ccc(OC)cc2)C(F)(F)F)cc1` showed a melting point of 120 to 121 °C.
As for `CC(=O)NCCn1ccc2c1-c1cccc(Cl)c1CC2`, the melting point lay within 124 to 126 °C.
The figure for `COc1cc(N)c(Cl)cc1C(=O)OCC12CCCN(CCC1)C2` is 152 to 154 °C.
Next, `NC(=O)c1cc(-n2cnn(Cc3ccc(F)cc3)c2=O)n[nH]1`: above 270 °C.
On to `CC(=O)n1nc(OCC(=O)C(C)(C)C)c(-c2ccccc2)c1-c1ccc(S(C)(=O)=O)cc1`, for which the melting point was in the range of 189 to 191 °C.
In the case of `Cc1cc2c(c3ccc(=O)[nH]c13)OC(CNC(=O)CN(C)C(=O)OC(C)(C)C)C2` (stereo unspecified), the melting point was in the range of 190 to 191 °C.
On to `COc1ccc(C)c(OC(F)C(=O)c2ccccc2)c1` (stereo unspecified), for which the melting point was in the range of 57 to 58 °C.
Next, `COC(C#N)c1ccc2ccccc2c1` (stereo unspecified): 47 to 48 °C; `Cc1c(C(=O)OCc2ccccc2)sc(NC(=O)c2ccccc2)c1C(=O)OC(C)(C)C`: 134 to 135 °C; `COc1c(CN2CCOCC2)cccc1-c1nc2c(N[C@H]3[C@@H](C(N)=O)[C@@H]4C=C[C@H]3C4)c(Cl)cnc2[nH]1`: 133 to 137 °C.
As for `C=C(C)CN1Cc2cscc2Nc2ccccc21`, the melting point lay within 83 to 84 °C.
The figure for `O=C1CCCc2onc(-c3ccccc3F)c21` is 82 to 83 °C; for `CN1CCC(O)(c2ccccc2CO)CC1` it is 118 to 119 °C.
Next, `C=C(C(N)=O)N1CCC(c2ccc(OC(C)=O)c(OC)c2)C1c1ccccc1` (stereo unspecified): 113 to 116 °C; `CS(=O)(=O)c1ccc(CCNC(=O)C(N)=O)cc1OC1CCCC1`: 185 to 186 °C.
On to `Cc1ncc2n1-c1ccc(C#N)cc1C(c1ccccc1F)=NC2`, for which the melting point fell in the range of 198 to 203 °C.
Next, `CCC(Cn1cncn1)(C(N)=O)c1ccc(Cl)cc1` (stereo unspecified): 139 to 140 °C.
The figure for `CN1CCC2(CC1)c1ccccc1C(O)c1ccccc12` is 208 to 210 °C; for `CCOC(=O)CCc1cccc(C(=O)c2cccc(C(=O)OCC)c2)c1C=CCCCCO` it is 48 to 50 °C.
For the compound `C=CN1NCC2CC3=C(C=CC(c4ccc(F)cc4)C3)CC21C` (stereo unspecified), the melting point fell in the range of 70 to 72 °C.
Next, `Cc1ccccc1-c1cccc(F)c1C#N`: 57 to 58 °C.
Next, `Cc1cc(CC#N)cc(Cc2nc3c(F)c(F)ccc3s2)c1`: 84 to 86 °C.
Next, `ON=c1cc(-c2cc3cccn3cn2)oc2ccc(OCCCOc3cccnc3)cc12`: 202 to 205 °C.
In turn, `CN(C)CCn1c(=O)[nH]c2ccccc21` displayed a melting point of 106 to 108 °C.
In turn, `CC(C)NC1=C(Cl)NC(N)(C(=O)NC#N)C=N1` (stereo unspecified) showed a melting point of 232 °C.
Next, `CCOC(=O)c1c(C)nc2snnc2c1NC(C)C`: 62 to 65 °C; `CC(C)(C)OC(=O)NCC(=O)NCC(=O)OCc1ccccc1` (Boc-Gly-Gly-OBn): 83 °C; `CCC(=O)Nc1ccc(Br)c(-n2nc(CC)n(Cc3ccc(-c4ccccc4S(=O)(=O)NC(=O)OC(C)(C)C)cc3F)c2=O)c1`: 146 to 148 °C.
The figure for `CC(C)C[C@H](NC(=O)[C@@H]1CCCN1c1nc2ccccc2c(=O)o1)C(=O)NCC(N)=O` is 199 to 201 °C.
The figure for `Cc1ccc2cc([N+](=O)[O-])c3ccc(C)nc3c2n1` is 184 to 186 °C; for `COc1ccccc1C(=O)NCC(=O)N1c2ccccc2N(Cc2ccccc2)C(=O)C2CCCC21` (stereo unspecified) it is 187 to 188 °C; for `COc1cc(C(F)(F)F)nc(NC(=O)Oc2ccccc2)n1` it is 85 to 88 °C.
